Experimental data as given in patent US8278090B1, “Heterotrophic cultivation of hydrocarbon-producing microalgae” (Solazyme, Inc., priority 2008, dated 2012).
Values joined by “and” are separate entries in the source; they are usually repeats but may differ in a detail not shown here. Equal entries are not always repeated.

How the values were obtained:
Type in all cases: cell-based
[1] = test system: Botryococcus braunii (strain UTEX 572); assay: Media component screening in heterotrophic culture; conditions: UTEX 572, 0.2% component + 3% glucose, 6-well plates, dark, room temperature, 16 days
Description: Media components incorporated in soil bacteria media were tested in heterotrophic culture of Botryococcus braunii (strain UTEX 572). For each component tested, 5 ml of B11 media (as described in Example 2 above) supplemented with 3% glucose (Fisher) were prepared in 6-well plates. Additionally, the media was supplemented with 0.2% of one of the following soil bacteria media components: dextrin (MP Biomedicals), malt extract (MP Biomedicals), traders yeast (Pharmamedia), corn meal, corn steep powder (Marcor), whole dead yeast (Engevita), casein type M (Marcor), casein type B (Marcor), tomato paste, molasses, soy hydrolysate (MP Biomedicals), soy flour (Arrowhead Mills), corn starch (Sigma), and maltose (Fisher). Wells were inoculated and cultures were grown at room temperature in the dark for 16 days. […] All media were filter sterilized.
The cells from each condition were transferred into 150 mL T150 flasks containing 50 mL B11 media with 3% glucose and 0.2% of their respective supplemental component. Cultures were grown in the dark for one week at 28° C. Cells were pelleted and fresh media (100 mL) were added to the cultures. The cultures were allowed to grow for another two weeks in the dark at 28° C. and then were collected and dry cell weights were measured. For most conditions, the addition of a 0.2% supplemental component increased cell growth as compared to glucose control. […]

[2] = test system: Botryococcus braunii UTEX 2441; assay: Heterotrophic growth with glucose, 24 well plate, dark or light; conditions: for DCW g/L / DCW mg/ml.: 4 weeks
Description: (§1) Modified BG-11 (17.65 mM NaNO3, 0.23 mM K2PO4, 0.3 mM MgSO4.7H2O, 0.25 mM CaCl2.2H2O, 0.189 mM Na2CO3, 0.03 mM citric acid monohydrate, 0.023 mM ferric ammonium citrate, 0.046 mM H3BO3, 9.15 μM MnCl2.4H2O, 0.77 μM ZnSO4.7H2O, 0.32 μM CuSO4.5H2O, 0.21 μM CoCl2.6H2O, 1.62 μM NaMoO4.2H2O, 2.69 μM Na2EDTA, 9 mg/l Tricine, 1.99 μM Thiamine-HCl, 0.006 μM Cyanocobalamine, 0.044 μM Calcium Pantothenate, 0.29 μM p-aminobenzoic acid, soil water).

[3] = test system: Botryococcus braunii UTEX 572; assay: as above; conditions: for DCW g/L / DCW mg/ml.: 4 weeks
Description: as §1

[4] = test system: Botryococcus braunii N-836; assay: Complex nitrogen sources on heterotrophic growth with glucose; conditions: N-836, 1% glucose in BG11, dark, 4 weeks
Description: (§2) The following experiment was done with UTEX 572, UTEX 2441, and N-836 in 20 ml of BG11 plus:
(§3) 1% glucose+2 g/L hydrolyzed casein

[5] = test system: Botryococcus braunii UTEX 2441; assay: as above; conditions: UTEX 2441, 1% glucose in BG11, dark, 4 weeks
Description: as §2, §3

[6] = test system: Botryococcus braunii UTEX 572; assay: as above; conditions: UTEX 572, 1% glucose in BG11, dark, 4 weeks
Description: as §2, §3

[7] = test system: Botryococcus braunii N-836; assay: Different fixed carbon sources on heterotrophic growth, visual score; parameters: key to heterotrophic growth score, 0.1% / heterotrophic growth score, 0.5% / heterotrophic growth score, 1%: Growth was scored with +'s by visual examination of the cultures; ++: Growth was scored with +'s by visual examination of the cultures; +++: Growth was scored with +'s by visual examination of the cultures; ++++: Growth was scored with +'s by visual examination of the cultures; +++++: Growth was scored with +'s by visual examination of the cultures
Description: (§4) All carbon sources were tested at three different concentrations; 0.1%, 0.5% and 1%. Cultures were grown in 24 well plates for 4 weeks in the dark in 1 ml BG11 plus fixed carbon. Control cultures were grown in BG-11 media under phototrophic conditions without a fixed carbon source. Growth was scored with +'s by visual examination of the cultures (see Table 7). UTEX 572 grew best in glucose, however there was also growth on mannose, galactose and fructose. UTEX 2441 preferred mannose in the dark but there was some growth in galactose, fructose and glycerol.

[8] = test system: Botryococcus braunii UTEX 2441; assay: as above; parameters: key to heterotrophic growth score, 0.1% / heterotrophic growth score, 0.5% / heterotrophic growth score, 1%: Growth was scored with +'s by visual examination of the cultures; ++: Growth was scored with +'s by visual examination of the cultures; +++: Growth was scored with +'s by visual examination of the cultures; ++++: Growth was scored with +'s by visual examination of the cultures; +++++: Growth was scored with +'s by visual examination of the cultures; conditions: 4 weeks
Description: as §4

[9] = test system: Botryococcus braunii UTEX 572; assay: as above; parameters: key to heterotrophic growth score, 0.1% / heterotrophic growth score, 0.5% / heterotrophic growth score, 1%: Growth was scored with +'s by visual examination of the cultures; ++: Growth was scored with +'s by visual examination of the cultures; +++: Growth was scored with +'s by visual examination of the cultures; ++++: Growth was scored with +'s by visual examination of the cultures; +++++: Growth was scored with +'s by visual examination of the cultures
Description: as §4

[10] = test system: Botryococcus braunii (UTEX 572); assay: High surface to volume heterotrophic cultivation; conditions: UTEX 572, 3% glucose, dark, stepwise scale-up
Description: In order to develop a reproducible, scalable process for the heterotrophic cultivation of B. braunii, a low-volume, slow-mixing heterotrophic procedure was developed. Botryococcus braunii (UTEX 572) cultures were transferred from solid media plates into 6-well plates using B-11 media supplemented with 3% glucose and was grown for one week at room temperature in the dark. The cultures were then transferred into 50 mL of fresh media in a 150 mL T-flask and agitated at 40 rpm on a plate shaker for one week at room temperature in the dark. The cultures were then transferred into 100 mL of fresh media in a 500 mL T-flask and agitated at 30 rpm with a two-inch throw for one week at room temperature in the dark. Finally, the cultures were transferred into 350 mL of fresh media in a Fernbach flask and agitated at 30 rpm with a two-inch throw for one week at room temperature in the dark. In one set of cultures, the cells were transferred into 500 mL of fresh media in a Fernbach flask (instead of 350 mL). Dry cell weights were collected for all cultures and compared. Cultures that were grown in a final volume of 350 mL of media reached a DCW of about 9 grams per liter.

OC[C@H]1O[C@H](O[C@H]2[C@H](O)[C@@H](O)C(O)O[C@@H]2CO)[C@H](O)[C@@H](O)[C@@H]1O (mixture of isomers) [maltose]
growth by visual observation as compared to glucose only control [1]: better growth

O=C[C@H](O)[C@@H](O)[C@H](O)[C@H](O)CO [glucose]
DCW g/L ([2]; UTEX 2441, 0.1% glucose, dark): 0.3 g/L
DCW mg/ml. ([2]; UTEX 2441, 0.1% glucose, dark): 0.3 mg/mL
DCW g/L ([2]; UTEX 2441, 0.2% glucose, dark): 0.3 g/L
DCW mg/ml. ([2]; UTEX 2441, 0.2% glucose, dark): 0.3 mg/mL
DCW g/L ([2]; UTEX 2441, 0.5% glucose, dark): 0.1 g/L
DCW mg/ml. ([2]; UTEX 2441, 0.5% glucose, dark): 0.1 mg/mL
growth in the dark at 1% glucose compared with 0.1 and 0.5% ([2]; UTEX 2441, 1% glucose, dark): best growth
DCW g/L ([2]; UTEX 2441, 1.0% glucose, dark): 0.7 g/L
DCW mg/ml. ([2]; UTEX 2441, 1.0% glucose, dark): 0.7 mg/mL
growth with glucose in the dark ([2]; UTEX 2441, BG11 plus glucose, dark): clearly grew
growth with glucose in the light ([2]; UTEX 2441, BG11 plus glucose, light): no growth
DCW g/L ([3]; UTEX 572, 0.1% glucose, dark): 0.2 g/L
DCW mg/ml. ([3]; UTEX 572, 0.1% glucose, dark): 0.2 mg/mL
DCW g/L ([3]; UTEX 572, 0.2% glucose, dark): 0.2 g/L
DCW mg/ml. ([3]; UTEX 572, 0.2% glucose, dark): 0.2 mg/mL
DCW g/L ([3]; UTEX 572, 0.5% glucose, dark): 0.4 g/L
DCW mg/ml. ([3]; UTEX 572, 0.5% glucose, dark): 0.4 mg/mL
growth in the dark at 1% glucose compared with 0.1 and 0.5% ([3]; UTEX 572, 1% glucose, dark): best growth
growth with glucose in the dark ([3]; UTEX 572, BG11 plus glucose, dark): clearly grew
growth with glucose in the light ([3]; UTEX 572, BG11 plus glucose, light): no growth
DCW [4]: 0.267 g/L
DCW mg/3 m1. [4]: 0.8 mg/3 m1
DCW [5]: 0.067 g/L
DCW mg/3 m1. [5]: 0.2 mg/3 m1
DCW [6]: 0.20 g/L and 0.33 g/L
DCW mg/3 m1. [6]: 0.6 mg/3 m1 and 1.0 mg/3 m1
heterotrophic growth score, 0.1% ([7]; N-836, 0.1% carbon source in 1 ml BG11, dark, 4 weeks): ++
heterotrophic growth score, 0.5% ([7]; N-836, 0.5% carbon source in 1 ml BG11, dark, 4 weeks): ++
heterotrophic growth score, 1% ([7]; N-836, 1% carbon source in 1 ml BG11, dark, 4 weeks): +++
heterotrophic growth on carbon source, in words ([7]; N-836, dark): heterotrophic growth
heterotrophic growth score, 0.1% ([8]; UTEX 2441, 0.1% carbon source in 1 ml BG11, dark): ++
heterotrophic growth score, 0.5% ([8]; UTEX 2441, 0.5% carbon source in 1 ml BG11, dark): ++
heterotrophic growth score, 1% ([8]; UTEX 2441, 1% carbon source in 1 ml BG11, dark): ++++
heterotrophic growth score, 0.1% ([9]; UTEX 572, 0.1% carbon source in 1 ml BG11, dark, 4 weeks): +++
heterotrophic growth score, 0.5% ([9]; UTEX 572, 0.5% carbon source in 1 ml BG11, dark, 4 weeks): ++++
heterotrophic growth score, 1% ([9]; UTEX 572, 1% carbon source in 1 ml BG11, dark, 4 weeks): +++++
heterotrophic growth on carbon source, in words ([9]; UTEX 572, dark): grew best
DCW ([10]; final volume 350 mL): about 9 grams per liter
DCW ([10]; final volume 500 mL): about 3 grams per liter
